Literature values in patent publication US20210316003A1 (Immunomedics, Inc., priority 2020, published 2021).
Read-outs that look alike come from different tables or passages of the source.

Columns and labels:
[1] = system: patients; settings: single-agent therapy; cited from earlier work
[2] = system: patients with advanced colorectal cancer; settings: cited from earlier work
[3] = system: SCLC patients; settings: 28 SCLC patients; cited from earlier work
[4] = system: patients with relapsed SCLC; settings: cited from earlier work
[5] = system: patients with recurrent SCLC; settings: nivolumab alone; cited from earlier work

## CCc1c2c(nc3ccc(OC(=O)N4CCC(N5CCCCC5)CC4)cc13)-c1cc3c(c(=O)n1C2)COC(=O)[C@]3(O)CC [irinotecan]
[1]
  Grade ≥3 events of early diarrhea: 8%
  Grade ≥3 events of late diarrhea: 31%
[2]; TDP1 IVS12+79 G/G genotype
  Response: 64%
[2]; TDP1 IVS12+79 T/T genotype
  Response: 25%
[2]; TOP1 IVS4+61 A/A genotype (small sample size)
  Incidence of grade 3/4 neutropenia: 50%
[2]; TOP1 IVS4+61 G/G genotype
  Incidence of grade 3/4 neutropenia: 8%

## CC[C@@]1(O)C(=O)OCc2c1cc1n(c2=O)Cc2cc3c(CN(C)C)c(O)ccc3nc2-1 [topotecan]
[3]
  Median survival: 5 months
  One-year survival: 3.5%
  PR: 11%
[4]; SCLC, meta-analysis
  Grade ≥3 anemia: 24%
  Grade ≥3 neutropenia: 69%
  Grade ≥3 thrombocytopenia: 1%
  Patients who died from this chemotherapy: approximately 2%
[4]; chemoresistant frontline SCLC patients
  Objective response rate: 5%
[4]; chemosensitive SCLC patients
  Objective response rate: 17%

## Nivolumab: inhibitor of the T-cell checkpoint receptor PD-1
[5]
  Response rate: 10%
